Assay results as given in ChEMBL document CHEMBL1201862, “PubChem BioAssay data set” (2004).
Values belong to the molecule of their own block, whether it stands above or below them. Calls of active or inactive are those of the source.

Assays:
[1] = biological target: T1, Zinc finger protein mex-5 (Caenorhabditis elegans, UniProt Q9XUB2); test: potency of MEX-5 RNA-binding blockers – biochemical, C. elegans, fluorescence polarization, dose response (AID 1960)
T1 sequence (Q9XUB2 whole entry): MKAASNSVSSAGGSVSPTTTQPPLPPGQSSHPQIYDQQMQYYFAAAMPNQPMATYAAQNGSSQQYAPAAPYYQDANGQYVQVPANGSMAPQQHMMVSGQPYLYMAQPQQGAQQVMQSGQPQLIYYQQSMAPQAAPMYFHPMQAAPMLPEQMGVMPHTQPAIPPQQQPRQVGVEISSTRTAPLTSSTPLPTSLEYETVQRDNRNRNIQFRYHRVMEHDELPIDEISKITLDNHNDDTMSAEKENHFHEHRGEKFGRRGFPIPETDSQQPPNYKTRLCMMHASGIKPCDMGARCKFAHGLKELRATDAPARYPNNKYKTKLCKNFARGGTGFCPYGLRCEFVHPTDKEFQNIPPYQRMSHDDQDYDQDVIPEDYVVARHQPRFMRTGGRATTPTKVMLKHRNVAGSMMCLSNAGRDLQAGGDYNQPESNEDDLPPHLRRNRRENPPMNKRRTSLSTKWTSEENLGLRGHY

[2] = biological target: T2, RNA-binding protein pos-1 (Caenorhabditis elegans, UniProt G5EF15); test: disruptors of C. elegans POS-1 RNA interaction – biochemical, fluorescence polarization, dose response (AID 1964);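 note: purified POS-1 fused to maltose binding protein made in E. coli; potency of compounds blocking POS-1 binding to fluorescent RNA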
T2 sequence (G5EF15 whole entry): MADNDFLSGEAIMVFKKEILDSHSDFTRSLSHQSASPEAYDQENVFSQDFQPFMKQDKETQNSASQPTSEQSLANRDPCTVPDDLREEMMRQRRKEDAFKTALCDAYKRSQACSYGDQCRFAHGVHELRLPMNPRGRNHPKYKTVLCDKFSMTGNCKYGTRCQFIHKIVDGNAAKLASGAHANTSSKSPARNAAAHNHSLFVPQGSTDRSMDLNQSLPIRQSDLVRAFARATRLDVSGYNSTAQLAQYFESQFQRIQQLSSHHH

[3] = biological target: T3, Short transient receptor potential channel 4 (Mus musculus, UniProt Q9QUQ5); test: calcium entry via TRPC4 opening agents – cell-based, HEK293 TRPC4/mu-opioid, Fluo-4 calcium, dose response (AID 434937); assay type: functional
T3 sequence (Q9QUQ5 whole entry): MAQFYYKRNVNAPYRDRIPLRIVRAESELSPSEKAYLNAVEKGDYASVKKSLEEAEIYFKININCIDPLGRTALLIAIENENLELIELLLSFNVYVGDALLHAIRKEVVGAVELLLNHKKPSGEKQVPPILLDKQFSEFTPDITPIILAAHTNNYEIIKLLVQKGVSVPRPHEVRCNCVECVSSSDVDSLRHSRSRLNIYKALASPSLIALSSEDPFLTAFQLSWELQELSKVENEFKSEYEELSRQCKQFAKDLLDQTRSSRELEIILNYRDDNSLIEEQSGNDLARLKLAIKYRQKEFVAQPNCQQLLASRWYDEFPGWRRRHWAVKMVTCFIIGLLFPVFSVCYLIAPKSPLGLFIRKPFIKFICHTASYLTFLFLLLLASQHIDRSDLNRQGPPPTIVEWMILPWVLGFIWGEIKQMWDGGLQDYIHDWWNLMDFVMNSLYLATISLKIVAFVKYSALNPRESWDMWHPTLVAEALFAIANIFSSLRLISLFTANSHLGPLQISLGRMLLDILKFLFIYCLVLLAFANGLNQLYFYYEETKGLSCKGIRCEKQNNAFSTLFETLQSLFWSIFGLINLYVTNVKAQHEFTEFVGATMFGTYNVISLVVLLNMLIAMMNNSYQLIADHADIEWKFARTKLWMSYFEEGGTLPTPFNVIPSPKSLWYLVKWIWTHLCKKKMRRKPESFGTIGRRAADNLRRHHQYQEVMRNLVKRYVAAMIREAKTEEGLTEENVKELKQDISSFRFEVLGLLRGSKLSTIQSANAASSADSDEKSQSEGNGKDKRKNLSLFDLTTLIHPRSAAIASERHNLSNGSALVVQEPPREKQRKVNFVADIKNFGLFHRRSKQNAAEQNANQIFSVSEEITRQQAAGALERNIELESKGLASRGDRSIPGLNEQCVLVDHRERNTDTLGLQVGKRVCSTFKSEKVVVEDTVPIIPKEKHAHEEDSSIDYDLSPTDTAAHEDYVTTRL

[4] = biological target: Induced myeloid leukemia cell differentiation protein Mcl-1 (Homo sapiens, UniProt Q07820); assay type: functional
Induced myeloid leukemia cell differentiation protein Mcl-1, sequence (Q07820 whole entry): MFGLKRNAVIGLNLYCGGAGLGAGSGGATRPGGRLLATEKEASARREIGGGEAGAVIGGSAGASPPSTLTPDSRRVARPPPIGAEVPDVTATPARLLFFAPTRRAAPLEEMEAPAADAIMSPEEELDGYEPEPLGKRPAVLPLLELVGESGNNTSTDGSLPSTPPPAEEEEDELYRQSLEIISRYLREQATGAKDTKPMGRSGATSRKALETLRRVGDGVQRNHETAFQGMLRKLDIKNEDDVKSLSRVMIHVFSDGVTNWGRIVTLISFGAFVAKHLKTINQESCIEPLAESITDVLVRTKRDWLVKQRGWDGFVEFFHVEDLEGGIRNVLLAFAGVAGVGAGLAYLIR

[5] = Trypanosoma cruzi growth suppression in host cells – NIH3T3 host cells, beta-gal luminescence, confirmation (AID 2044); assay type: functional, cell-based;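 note: intracellular parasites grown in NIH/3T3 mouse fibroblasts as host cells; luminescent beta-galactosidase reporter signal from transgenic T. cruzi replicating inside host cells; inhibitors lower the luminescence signal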
[6] = NIH3T3 cell viability loss – ATP luminescence, mouse fibroblasts, counter-screen, dose response (AID 2010); assay type: functional, cell-based;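 note: cells exposed to compound for about 90 hours before reading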
[7] = biological target: T4, Polyadenylate-binding protein 1 (Homo sapiens, UniProt P11940); test: MLLE binding blockers, Cy5 peptide tracer – biochemical, fluorescence polarization, Cy5-PAM2 peptide, secondary, miRNA deadenylation inhibitor project, dose response (AID 602260); assay type: functional; conditions: read-out: IC50_Mean
T4 sequence (P11940 whole entry, the tested form may be a part): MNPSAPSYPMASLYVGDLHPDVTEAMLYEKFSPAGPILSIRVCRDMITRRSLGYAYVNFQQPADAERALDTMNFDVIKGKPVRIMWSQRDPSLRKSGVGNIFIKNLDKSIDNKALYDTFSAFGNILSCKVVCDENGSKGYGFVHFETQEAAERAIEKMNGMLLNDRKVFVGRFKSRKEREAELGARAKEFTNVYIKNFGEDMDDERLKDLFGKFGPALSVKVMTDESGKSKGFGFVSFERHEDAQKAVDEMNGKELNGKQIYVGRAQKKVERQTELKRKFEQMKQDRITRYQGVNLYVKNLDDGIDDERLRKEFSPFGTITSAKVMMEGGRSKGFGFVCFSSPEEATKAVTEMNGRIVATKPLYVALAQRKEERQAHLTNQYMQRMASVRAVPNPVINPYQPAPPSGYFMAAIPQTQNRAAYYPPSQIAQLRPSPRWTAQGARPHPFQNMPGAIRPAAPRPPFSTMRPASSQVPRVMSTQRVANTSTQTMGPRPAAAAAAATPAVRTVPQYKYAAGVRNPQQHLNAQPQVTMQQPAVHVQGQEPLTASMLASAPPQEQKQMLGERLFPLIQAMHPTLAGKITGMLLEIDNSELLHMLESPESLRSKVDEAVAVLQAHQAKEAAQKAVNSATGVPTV

[8] = biological target: T4, Polyadenylate-binding protein 1; test: MLLE domain peptide-binding blockers, IC50 – biochemical, fluorescence polarization, FITC-PAM2 peptide, dose response (AID 602259); assay type: functional; conditions: read-out: IC50_Mean
[9] = biological target: FAD-linked sulfhydryl oxidase ALR (Homo sapiens, UniProt P55789); test: ALR-catalysed DTT oxidation blockers – biochemical, H2O2 detection, luminescence, cherry-pick, dose response (AID 493248)
FAD-linked sulfhydryl oxidase ALR, sequence (P55789 whole entry): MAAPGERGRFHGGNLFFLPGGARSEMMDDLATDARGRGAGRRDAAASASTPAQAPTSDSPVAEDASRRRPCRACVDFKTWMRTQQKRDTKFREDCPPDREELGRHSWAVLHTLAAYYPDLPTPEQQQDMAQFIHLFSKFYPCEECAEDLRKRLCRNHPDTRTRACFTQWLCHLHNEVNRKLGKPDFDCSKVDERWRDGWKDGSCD

[10] = system: INS1; test: INS-1E survival protection against cytokine death – cell-based, luminescence, retest, dose response (AID 449756); assay type: functional; conditions: Rattus norvegicus;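 note: cell death triggered by IL-1 beta plus TNF-alpha plus IFN-gamma mixture; protective hits raise ATP signal compared with cytokine alone wells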
[11] = intracellular Trypanosoma cruzi inhibitors in host cells – cell-based, plate reader, cherry-pick samples, set 3, dose response (AID 651818); assay type: functional;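 note: compounds incubated with infected cells for about four days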

Compound: CCCN(CCC)CCCNC(=O)C1CCN(S(=O)(=O)c2cccc3nsnc23)CC1
EC50 [3]: 0.133 µM (active)

Compound: Cc1ccc(C)c(OCCCCCn2ccnc2)c1
EC50 [5]: 0.505 µM (active) | EC50 [6]: 4.76 µM (active) | EC50 [3]: 3.35 µM (active)

Compound: O=[N+]([O-])c1cc(-c2ccc([As](=O)(O)O)cc2)ccc1[As](=O)(O)O
EC50 [1]: 18 µM (active) | EC50 [2]: 22.8 µM (inconclusive)

Compound: Cc1cccc(N(C)C(=O)CCS(=O)(=O)c2cc3c(cc2Cl)NC(=O)CO3)c1
IC50 [7]: > 66 µM (inactive) | IC50 [8]: > 66 µM (inactive)

Compound: CC1CC(C)CN(CCCNS(=O)(=O)c2cc(Br)cc3c2N(C(=O)C2CC2)CC3)C1 (stereo unspecified)
EC50 [3]: 0.0267 µM (active)

Compound: CC1(C)CC(=O)C2=C(C1)OC(N)=C(C#N)C2c1ccc2c(c1)OCO2 (stereo unspecified)
EC50 [1]: > 300 µM (not active) | EC50 [2]: > 300 µM (not active)

Compound: CC(C)c1ccc(O)c(NC(=S)NC(=O)CCc2ccccc2)c1
IC50 [7]: > 66 µM (inactive) | IC50 [8]: > 66 µM (inactive)

Compound: Cc1cc(-c2ccccc2)cc(C)[n+]1Cc1ccccc1.[O-][Cl+3]([O-])([O-])[O-]
AC50 [10]: 0.719 µM (active) | EC50 [3]: 1.88 µM (active)

Compound: COc1ccc(/C(C)=N\NC(=O)CSc2nnc(C)s2)cc1
IC50 [7]: > 66 µM (inactive) | IC50 [8]: > 66 µM (inactive)

Compound: Cc1noc(C)c1S(=O)(=O)Nc1cccc2c1O[C@H](CN(C)Cc1ccc(C(=O)Nc3ccccc3N)cc1)[C@H](C)CN([C@H](C)CO)C2=O
AC50 [11]: 3.53 µM (active)

Compound: C[C@H](CO)N1C[C@H](C)[C@@H](CN(C)Cc2ccc(-c3ccccc3)cc2)Oc2c(NC(=O)CCCCCC(=O)Nc3ccccc3N)cccc2C1=O
AC50 [11]: 1.6 µM (active)

Compound: C[C@H]1CN([C@@H](C)CO)C(=O)c2cccc(NS(=O)(=O)c3ccc(Cl)cc3)c2O[C@H]1CN(C)Cc1ccc(C(=O)Nc2ccccc2N)cc1
AC50 [11]: 2.28 µM (active)

Compound: C[C@H](CO)N1C[C@H](C)[C@H](CN(C)S(=O)(=O)c2cccs2)Oc2c(NC(=O)c3nc4ccccc4s3)cccc2C1=O
AC50 [11]: 1.67 µM (active)

Compound: C[C@@H]1CN([C@H](C)CO)C(=O)c2cccc(NC(=O)CCCCCC(=O)Nc3ccccc3N)c2O[C@H]1CN(C)CC1CCCCC1
AC50 [11]: 3.18 µM (active)

Compound: Cc1ccc(S(=O)(=O)Nc2ccc3c(c2)C(=O)N([C@@H](C)CO)C[C@@H](C)[C@@H](CN(C)Cc2ccc(Cl)c(Cl)c2)O3)cc1
AC50 [11]: 3.36 µM (active)

Compound: C[C@H]1CN([C@@H](C)CO)C(=O)Cc2cc(N(C)C)ccc2O[C@@H]1CN(C)Cc1ccc(C(F)(F)F)cc1
AC50 [11]: 0.991 µM (active)

Compound: COc1ccc2[nH]c3c(=O)n(Cc4ccc(C(=O)N5CCCC5)cc4)c(=S)[nH]c3c2c1
IC50 [4]: 3.5 µM (not active)

Compound: O=[N+]([O-])c1cccc(N/N=C/c2cc([N+](=O)[O-])ccc2O)c1
IC50 [4]: < 0.4 µM (active)

Results, then the molecule that gave them:

EC50 [1]: 6.35 µM (active) | EC50 [2]: 39.5 µM (active)
Compound: Cn1ncc2c(NNC(=O)c3ccc(O)cc3)ncnc21

EC50 [1]: 58.4 µM (active) | EC50 [2]: 50.3 µM (active)
Compound: COc1ccccc1N=C(S)NNC(=O)c1cc(C)n(C)n1

EC50 [1]: 173 µM (active) | EC50 [2]: > 300 µM (not active)
Compound: Cc1cccc(Oc2nc(-c3ccccn3)nc3ccccc23)c1

EC50 [1]: > 300 µM (not active) | EC50 [2]: > 300 µM (not active)
Compound: CC1CN(C2CC(C)(C)NC(C)(C)C2)CCC1=O (stereo unspecified)

EC50 [3]: 1.88 µM (active)
Compound: COC(=O)C1CCN(Cc2cn(-c3ccccc3)nc2-c2ccc3c(c2)OCO3)CC1

IC50 [4]: 9.1 µM (not active)
Compound: C=CCc1c(C)nc(SCCC)nc1O

IC50 [7]: > 66 µM (inactive) | IC50 [8]: > 66 µM (inactive)
Compound: Cc1ccc(NC(S)=Nc2ccccn2)cc1C

IC50 [4]: 5.8 µM (active)
Compound: O=C(CSc1ccsc1[N+](=O)[O-])N1CCN(c2ccc(Cl)cc2)CC1

AC50 [9]: 8.25 µM (active) | EC50 [3]: 6.68 µM (active)
Compound: COc1ccc(N2CCN(Cc3nc4ccccc4n3C)CC2)cc1
